Reference: the NIST ThermoML archive (doi:10.1016/j.jct.2006.10.011)
Where “and” joins values, the source holds several entries; their conditions need not be identical. Equal entries are not always repeated.

Experiment: molar heat capacity at constant pressure
Conditions: 101.33 kPa, Crystal

O [water]
Conditions | molar heat capacity at constant pressure
4.947 K, Low-temperature adiabatic | 0.02384 J/K/mol
5 K, adiabatic | 0.02458 J/K/mol
5.194 K, Low-temperature adiabatic | 0.02762 J/K/mol
5.44 K, Low-temperature adiabatic | 0.03248 J/K/mol
5.5 K, adiabatic | 0.03354 J/K/mol
5.713 K, Low-temperature adiabatic | 0.03773 J/K/mol
5.985 K, Low-temperature adiabatic | 0.04456 J/K/mol
6 K, adiabatic | 0.04478 J/K/mol
6.284 K, Low-temperature adiabatic | 0.05186 J/K/mol
6.5 K, adiabatic | 0.05874 J/K/mol
6.583 K, Low-temperature adiabatic | 0.06156 J/K/mol
6.912 K, Low-temperature adiabatic | 0.07207 J/K/mol
7 K, adiabatic | 0.07583 J/K/mol
7.239 K, Low-temperature adiabatic | 0.08574 J/K/mol
7.5 K, adiabatic | 0.09651 J/K/mol
7.6 K, Low-temperature adiabatic | 0.1009 J/K/mol
7.96 K, Low-temperature adiabatic | 0.1206 J/K/mol
8 K, adiabatic | 0.1212 J/K/mol
8.354 K, Low-temperature adiabatic | 0.1416 J/K/mol
8.5 K, adiabatic | 0.1503 J/K/mol
8.75 K, Low-temperature adiabatic | 0.1684 J/K/mol
9 K, adiabatic | 0.1842 J/K/mol
9.185 K, Low-temperature adiabatic | 0.1972 J/K/mol
9.187 K, Low-temperature adiabatic | 0.1979 J/K/mol
9.5 K, adiabatic | 0.2231 J/K/mol
9.619 K, Low-temperature adiabatic | 0.2343 J/K/mol
9.645 K, Low-temperature adiabatic | 0.2352 J/K/mol
10 K, adiabatic | 0.2672 J/K/mol
10.11 K, Low-temperature adiabatic | 0.2752 J/K/mol and 0.2768 J/K/mol
10.59 K, Low-temperature adiabatic | 0.3268 J/K/mol
10.6 K, Low-temperature adiabatic | 0.3266 J/K/mol
11 K, adiabatic | 0.3709 J/K/mol
11.12 K, Low-temperature adiabatic | 0.3841 J/K/mol
11.66 K, Low-temperature adiabatic | 0.4516 J/K/mol
12 K, adiabatic | 0.4948 J/K/mol
12.23 K, Low-temperature adiabatic | 0.5267 J/K/mol
12.82 K, Low-temperature adiabatic | 0.6103 J/K/mol
13 K, adiabatic | 0.6372 J/K/mol
13.43 K, Low-temperature adiabatic | 0.7044 J/K/mol
14 K, adiabatic | 0.7967 J/K/mol
14.08 K, Low-temperature adiabatic | 0.8099 J/K/mol
14.75 K, Low-temperature adiabatic | 0.9261 J/K/mol
15 K, adiabatic | 0.9716 J/K/mol
15.46 K, Low-temperature adiabatic | 1.058 J/K/mol
16 K, adiabatic | 1.16 J/K/mol
16.19 K, Low-temperature adiabatic | 1.197 J/K/mol
16.99 K, Low-temperature adiabatic | 1.356 J/K/mol
17 K, adiabatic | 1.358 J/K/mol
17.79 K, Low-temperature adiabatic | 1.518 J/K/mol
18 K, adiabatic | 1.564 J/K/mol
18.66 K, Low-temperature adiabatic | 1.704 J/K/mol
19 K, adiabatic | 1.777 J/K/mol
19.55 K, Low-temperature adiabatic | 1.895 J/K/mol
19.6 K, Low-temperature adiabatic | 1.908 J/K/mol
20 K, adiabatic | 1.993 J/K/mol
20.58 K, Low-temperature adiabatic | 2.12 J/K/mol
21.46 K, Low-temperature adiabatic | 2.315 J/K/mol
22 K, adiabatic | 2.433 J/K/mol
22.52 K, Low-temperature adiabatic | 2.55 J/K/mol
23.59 K, Low-temperature adiabatic | 2.78 J/K/mol
24 K, adiabatic | 2.873 J/K/mol
24.75 K, Low-temperature adiabatic | 3.037 J/K/mol
25.92 K, Low-temperature adiabatic | 3.292 J/K/mol
26 K, adiabatic | 3.306 J/K/mol
27.21 K, Low-temperature adiabatic | 3.562 J/K/mol
28 K, adiabatic | 3.728 J/K/mol
28.49 K, Low-temperature adiabatic | 3.828 J/K/mol
29.94 K, Low-temperature adiabatic | 4.128 J/K/mol
30 K, adiabatic | 4.139 J/K/mol
31.38 K, Low-temperature adiabatic | 4.423 J/K/mol
32 K, adiabatic | 4.543 J/K/mol
32.99 K, Low-temperature adiabatic | 4.735 J/K/mol
34 K, adiabatic | 4.947 J/K/mol
34.59 K, Low-temperature adiabatic | 5.067 J/K/mol
36 K, adiabatic | 5.363 J/K/mol
36.02 K, Low-temperature adiabatic | 5.371 J/K/mol
37.45 K, Low-temperature adiabatic | 5.677 J/K/mol
38 K, adiabatic | 5.804 J/K/mol
